Patent US11407719B2, “Anti-inflammatory agents” (Resverlogix Corp., priority 2009, dated 2022)

Test system: hIL-6 mRNA
Test: Quantification of hIL-6 mRNA
Assay type: cell-based, human
Design: key: Active: an active compound is one that causes a ≥20% inhibition in IL-6 mRNA at a concentration less than or equal to 10 μM
Details: IL-6 mRNA by real-time PCR; differentiated U937 cells, 1 h pretreatment, lipopolysaccharide stimulation 3 h; concentration ≤10 μM
Procedure: In this example, […] in tissue culture cells was quantitated to measure the transcriptional inhibition of hIL-6 when treated with a compound of the invention.
A human leukemic monocyte lymphoma cell line (U937) was plated (3.2×10^5 cells per well) in a 96-well plate in 100 μL RPMI-1640, and differentiated for 3 days prior to the addition of the compound of interest. The cells were pretreated for 1 h with the test compound prior to stimulation with lipolysaccharide from Escherichia coli. The cells were incubated at 37° C. for 3 h before the cells were harvested. At time of harvest, the spent media was removed from the cells and the cells were rinsed in 200 μL PBS. Cell lysis solution (70 μL) was added the cells in each well and incubated for 5-10 min at room temperature, to allow for complete cell lysis and detachment. mRNA was then prepared using the “mRNA Catcher PLUS plate” (Invitrogen), according to the protocol supplied. After the last wash, as much wash buffer as possible was aspirated without allowing the wells to dry. Elution buffer (E3, 70 μL) was then added to each well. mRNA was then eluted by incubating the mRNA Catcher PLUS plate with Elution Buffer for 5 min at 68° C. and then immediately placing the plate on ice.
The eluted mRNA isolated was then used in a one-step quantitative real-time PCR reaction, using components of the Ultra Sense Kit together with Applied Biosystems primer-probe mixes. Real-time PCR data was analyzed, normalizing the Ct values for hIL-6 to an internal control, prior to determining the fold induction of each unknown sample, relative to the control.

Row | Compound | Inhibition of IL-6 expression
1 | COc1cc(OC)c2c(=O)[nH]c(-c3ccc(CN4CCC(N(C(C)=O)C(C)C)CC4)cc3)nc2c1 [N-(1-(4-(5,7-Dimethoxy-4-oxo-3,4-dihydroquinazolin-2-yl)benzyl)piperidin-4-yl)-N-isopropylacetamide] | Active
2 | COc1cc(OC)c2c(=O)[nH]c(-c3ccc(N4CCC(=O)CC4)cc3)nc2n1 [5,7-Dimethoxy-2-(4-(4-oxopiperidin-1-yl)phenyl)pyrido[2,3-d]pyrimidin-4(3H)-one] | Active
3 | COc1cc(OC)c2c(=O)[nH]c(-c3ccc(CN4CCN(C)CC4)cc3)nc2c1 [5,7-dimethoxy-2-(4-((4-methylpiperazin-1-yl)methyl)phenyl)quinazolin-4(3H)-one] | Active
4 | COc1cc(OC)c2c(=O)[nH]c(-c3ccc(N4CCC(NC(=O)N(C)C)CC4)cc3)nc2c1 [3-(1-(4-(5,7-Dimethoxy-4-oxo-3,4-dihydroquinazolin-2-yl)phenyl)piperidin-4-yl)-1,1-dimethylurea] | Active
5 | COc1cc(OC)c2c(=O)[nH]c(-c3ccc(N4C[C@@H](C)N(C(C)C)[C@@H](C)C4)cc3)nc2c1 [2-(4-((3R,5S)-4-Isopropyl-3,5-dimethylpiperazin-1-yl)phenyl)-5,7-dimethoxyquinazolin-4(3H)-one] | Active
6 | COc1cc(OC)c2c(=O)[nH]c(-c3cc(C)c(OCCCN4CCCC4)c(C)c3)nc2c1 [2-(3,5-Dimethyl-4-(3-(pyrrolidin-1-yl)propoxy)phenyl)-5,7-dimethoxyquinazolin-4(3H)-one] | Active
7 | COc1cc(OC)c2c(=O)[nH]c(-c3ccc(C4CCN(C(C)=O)CC4)cc3)nc2c1 [2-(4-(1-acetylpiperidin-4-yl)phenyl)-5,7-dimethoxyquinazolin-4(3H)-one] | Active
8 | CC(C)N1CCN(c2ccc(-c3nc4cccc(Cl)c4c(=O)[nH]3)cc2)CC1 [5-Chloro-2-(4-(4-isopropylpiperazin-1-yl)phenyl)quinazolin-4(3H)-one] | Active
9 | COc1cc(OC)c2c(=O)[nH]c(-c3ccc4[nH]c(CCO)cc4c3)nc2c1 [2-(2-(2-Hydroxyethyl)-1H-indol-5-yl)-5,7-dimethoxyquinazolin-4(3H)-one] | Active
10 | COc1cc(OC)c2c(=O)[nH]c(-c3cc(C)c(OCCN4CCN(C)CC4)c(C)c3)cc2c1 [3-(3,5-dimethyl-4-(2-(4-methylpiperazin-1-yl)ethoxy)phenyl)-6,8-dimethoxyisoquinolin-1(2H)-one] | Active
11 | COc1cc(OC)c2c(=O)[nH]c(-c3ccc(CN4CCC(NC(C)C)CC4)cc3)nc2c1 [2-(4-((4-(Isopropylamino)piperidin-1-yl)methyl)phenyl)-5,7-dimethoxyquinazolin-4(3H)-one] | Active
12 | COc1cc(OC)c2c(=O)[nH]c(-c3ccc(NS(C)(=O)=O)cc3)nc2c1 [N-(4-(5,7-Dimethoxy-4-oxo-3,4-dihydroquinazolin-2-yl)phenyl)methanesulfonamide] | Active
13 | COc1cc(OC)c2c(=O)[nH]c(-c3ccc4[nH]nc(CO)c4c3)nc2c1 [2-(3-(Hydroxymethyl)-1H-indazol-5-yl)-5,7-dimethoxyquinazolin-4(3H)-one] | Active
14 | COc1cc(OC)c2c(=O)[nH]c(-c3ccc(C4CCNCC4)cc3)nc2c1 [5,7-Dimethoxy-2-(4-(piperidin-4-yl)phenyl)quinazolin-4(3H)-one] | Active
15 | COc1cc(OC)c2c(=O)[nH]c(-c3ccc(N(CCO)CCO)cc3)nc2n1 [2-(4-(bis(2-hydroxyethyl)amino)phenyl)-5,7-dimethoxypyrido[2,3-d]pyrimidin-4(3H)-one] | Active
16 | COc1cc(OC)c2c(=O)[nH]c(-c3cc(C)c(OCCN4C(=O)c5ccccc5C4=O)c(C)c3)cc2c1 [2-(2-(4-(6,8-Dimethoxy-1-oxo-1,2-dihydroisoquinolin-3-yl)-2,6-dimethylphenoxy)ethyl)isoindoline-1,3-dione] | Active
17 | COc1cc(OC)c2c(=O)[nH]c(-c3ccc(N4CCC(N(C(C)=O)C(C)C)CC4)cc3)nc2c1 [N-(1-(4-(5,7-dimethoxy-4-oxo-3,4-dihydroquinazolin-2-yl)phenyl)piperidin-4-yl)-N-isopropylacetamide] | Active
18 | COc1cc(OC)c2c(=O)[nH]c(-c3ccc(N4CCN(C=O)CC4)cc3)nc2c1 [4-(4-(5,7-Dimethoxy-4-oxo-3,4-dihydroquinazolin-2-yl)phenyl)piperazine-1-carbaldehyde] | Active

Row | Compound | Inhibition of IL-6 expression
19 | COc1cc(OC)c2c(=O)[nH]c(-c3ccc(N4C[C@@H](C)N(C(C)=O)[C@@H](C)C4)cc3)nc2n1 [2-(4-((3R,5S)-4-Acetyl-3,5-dimethylpiperazin-1-yl)phenyl)-5,7-dimethoxypyrido[2,3-d]pyrimidin-4(3H)-one] | Active
20 | Cc1cc(-c2nc3nc(OC(C)C)cc(OC(C)C)c3c(=O)[nH]2)cc(C)c1OCCN1CCCC1 [2-(3,5-Dimethyl-4-(2-(pyrrolidin-1-yl)ethoxy)phenyl)-5,7-diisopropoxypyrido[2,3-d]pyrimidin-4(3H)-one] | Active
21 | COc1cc(OC)c2c(=O)[nH]c(-c3ccc(Nc4ccc(C)cc4)cc3)nc2c1 [5,7-Dimethoxy-2-(4-(p-tolylamino)phenyl)quinazolin-4(3H)-one] | Active
22 | CNC1CCN(c2ccc(-c3nc4cc(OC)cc(OC)c4c(=O)[nH]3)cc2)C1 (centres unmarked) [5,7-Dimethoxy-2-(4-(3-(methylamino)pyrrolidin-1-yl)phenyl)quinazolin-4(3H)-one] | Active
23 | COc1cc(OC)c2c(=O)[nH]c(-c3ccc4[nH]c(CO)cc4c3)nc2c1 [2-(2-(Hydroxymethyl)-1H-indol-5-yl)-5,7-dimethoxyquinazolin-4(3H)-one] | Active
24 | COc1cc(OC)c2c(=O)[nH]c(-c3ccc(C4CCN(C(=O)OC(C)(C)C)CC4)cc3)nc2c1 [Tert-butyl 4-(4-(5,7-dimethoxy-4-oxo-3,4-dihydroquinazolin-2-yl)phenyl)piperidine-1-carboxylate] | Active
25 | COc1cc(OC)c2c(=O)[nH]c(-c3cc(C)c(OCCN4CCOCC4)c(C)c3)cc2c1 [3-(3,5-dimethyl-4-(2-morpholinoethoxy)phenyl)-6,8-dimethoxyisoquinolin-1(2H)-one] | Active
26 | COc1cc(OC)c2c(=O)[nH]c(-c3ccc(N4CCC(N(Cc5ccccc5)C(C)=O)CC4)nc3)nc2c1 [N-Benzyl-N-(1-(5-(5,7-dimethoxy-4-oxo-3,4-dihydroquinazolin-2-yl)pyridin-2-yl)piperidin-4-yl)acetamide] | Active
27 | COc1cc(OC)c2c(=O)[nH]c(-c3ccc(N4CCN(C(=O)c5cccnc5)CC4)cc3)nc2c1 [5,7-Dimethoxy-2-(4-(4-nicotinoylpiperazin-1-yl)phenyl)quinazolin-4(3H)-one] | Active
28 | COc1cc(OC)c2c(=O)[nH]c(-c3ccc(N4CCN(C(=O)c5cccs5)CC4)cc3)nc2c1 [5,7-Dimethoxy-2-(4-(4-(thiophene-2-carbonyl)piperazin-1-yl)phenyl)quinazolin-4(3H)-one] | Active
29 | COc1cc(OC)c2c(=O)[nH]c(-c3ccc(CN4CCN(C(C)C)CC4)cc3)nc2c1 [2-(44(4-Isopropylpiperazin-1-yl)methyl)phenyl)-5,7-dimethoxyquinazolin-4(3H)-one] | Active
30 | COc1cc(OC)c2c(=O)[nH]c(-c3ccc(N4CCN(Cc5ccccc5)CC4)cc3)nc2c1 [2-(4-(4-Benzylpiperazin-1-yl)phenyl)-5,7-dimethoxyquinazolin-4(3H)-one] | Active
31 | COc1cc(OC)c2c(=O)[nH]c(-c3ccc(N4CCCN(C(C)=O)CC4)cc3)nc2c1 [2-(4-(4-Acetyl-1,4-diazepan-1-yl)phenyl)-5,7-dimethoxyquinazolin-4(3H)-one] | Active
32 | COc1cc(OC)c2c(=O)[nH]c(-c3ccc(N4CCN(Cc5ccc(F)cc5)CC4)cc3)nc2c1 [2-(4-(4-(4-Fluorobenzyl)piperazin-1-yl)phenyl)-5,7-dimethoxyquinazolin-4(3H)-one] | Active
33 | COc1cc(OC)c2c(=O)[nH]c(-c3ccc(OC4CCN(C(C)=O)CC4)cc3)nc2c1 [2-(4-(1-Acetylpiperidin-4-yloxy)phenyl)-5,7-dimethoxyquinazolin-4(3H)-one] | Active
34 | COc1cc(OC)c2c(=O)[nH]c(-c3ccc(N4CCOCC4)cc3)nc2c1 [5,7-dimethoxy-2-(4-morpholinophenyl)quinazolin-4(3H)-one] | Active
35 | COc1cc(OC)c2c(=O)[nH]c(-c3ccc(N4CCC(NS(C)(=O)=O)CC4)cc3)nc2c1 [N-(1-(4-(5,7-Dimethoxy-4-oxo-3,4-dihydroquinazolin-2-yl)phenyl)piperidin-4-yl)methanesulfonamide] | Active
